Columns and labels:
CECR2 = target: T1, CECR2 (Homo sapiens, UniProt Q9BXF3); assay: BromoScan profiling (DiscoverX); format: binding; settings: read-out: Percent Control CECR2
T1 construct: purchased Eurofins DiscoverX (BROMOscan)

BAZ2B = target: T2, BAZ2B (Homo sapiens, UniProt Q9UIF8); assay: BromoScan profiling (DiscoverX); format: binding; settings: read-out: Percent Control BAZ2B
T2 construct: purchased Eurofins DiscoverX (BROMOscan)

GCN5L2 = target: T3, GCN5L2 (Homo sapiens, UniProt Q92830); assay: BromoScan profiling (DiscoverX); format: binding; settings: read-out: Percent Control GCN5L2
T3 construct: purchased Eurofins DiscoverX (BROMOscan)

BRD4(1) = target: T4, BRD4(1) (Homo sapiens, UniProt O60885); assay: BromoScan profiling (DiscoverX); format: binding; settings: read-out: Percent Control BRD4(1)
T4 construct: BRD4(1); purchased Eurofins DiscoverX (BROMOscan)

[1] = Brain tissue concentration after i.p. dosing (LC-MS/MS); format: in vivo, female CD-1 nude mice; settings: below lower limit of quantitation
Method: One of the most aggressive MB tumor subtypes are Group 3 medulloblastoma (G3MB), which are commonly characterized by overexpression of the driver oncogene c-MYC due to gene amplification in 17% of cases[40],[42],[43]. These tumors are associated with poor patient survival. […] We sacrificed treated mice at three timepoints after dosing (8, 16, 24 h) and perfused the murine vasculature with PBS to eliminate contaminating blood from the brain.
All animal studies were approved by the St. Jude Children’s Research Hospital Animal Care and Use Committee and performed in accordance with best practices outlined by the NIH Office of Laboratory Animal Welfare. […]
Brain samples were homogenized using a FastPrep-24 system (MP Biomedicals, Santa Ana, CA), and stored at -80 °C until analysis by qualified liquid chromatography–tandem mass spectrometry (LC-MS/MS) assay. […] Plasma and brain homogenate samples were precipitated, and extracted supernatant was analyzed on an AB Sciex ExionLC high performance liquid chromatography system via an AB Sciex ExionLC autosampler. For quantitation, a linear model (1/X^2 weighting) fit the plasma and brian homogenate calibrators across the 1 to 500 ng/mL range, with a correlation coefficient (R) of ≥0.9967. […] No matrix effects, ion enhancement or suppression, were detected in blank CD-1 mouse plasma or NSG brain homogenates.

SMARCA2 = target: T5, SMARCA2 (Homo sapiens, UniProt P51531); assay: BromoScan profiling (DiscoverX); format: binding; settings: read-out: Percent Control SMARCA2
T5 construct: purchased Eurofins DiscoverX (BROMOscan)

T2 sequence (Q9UIF8 whole entry): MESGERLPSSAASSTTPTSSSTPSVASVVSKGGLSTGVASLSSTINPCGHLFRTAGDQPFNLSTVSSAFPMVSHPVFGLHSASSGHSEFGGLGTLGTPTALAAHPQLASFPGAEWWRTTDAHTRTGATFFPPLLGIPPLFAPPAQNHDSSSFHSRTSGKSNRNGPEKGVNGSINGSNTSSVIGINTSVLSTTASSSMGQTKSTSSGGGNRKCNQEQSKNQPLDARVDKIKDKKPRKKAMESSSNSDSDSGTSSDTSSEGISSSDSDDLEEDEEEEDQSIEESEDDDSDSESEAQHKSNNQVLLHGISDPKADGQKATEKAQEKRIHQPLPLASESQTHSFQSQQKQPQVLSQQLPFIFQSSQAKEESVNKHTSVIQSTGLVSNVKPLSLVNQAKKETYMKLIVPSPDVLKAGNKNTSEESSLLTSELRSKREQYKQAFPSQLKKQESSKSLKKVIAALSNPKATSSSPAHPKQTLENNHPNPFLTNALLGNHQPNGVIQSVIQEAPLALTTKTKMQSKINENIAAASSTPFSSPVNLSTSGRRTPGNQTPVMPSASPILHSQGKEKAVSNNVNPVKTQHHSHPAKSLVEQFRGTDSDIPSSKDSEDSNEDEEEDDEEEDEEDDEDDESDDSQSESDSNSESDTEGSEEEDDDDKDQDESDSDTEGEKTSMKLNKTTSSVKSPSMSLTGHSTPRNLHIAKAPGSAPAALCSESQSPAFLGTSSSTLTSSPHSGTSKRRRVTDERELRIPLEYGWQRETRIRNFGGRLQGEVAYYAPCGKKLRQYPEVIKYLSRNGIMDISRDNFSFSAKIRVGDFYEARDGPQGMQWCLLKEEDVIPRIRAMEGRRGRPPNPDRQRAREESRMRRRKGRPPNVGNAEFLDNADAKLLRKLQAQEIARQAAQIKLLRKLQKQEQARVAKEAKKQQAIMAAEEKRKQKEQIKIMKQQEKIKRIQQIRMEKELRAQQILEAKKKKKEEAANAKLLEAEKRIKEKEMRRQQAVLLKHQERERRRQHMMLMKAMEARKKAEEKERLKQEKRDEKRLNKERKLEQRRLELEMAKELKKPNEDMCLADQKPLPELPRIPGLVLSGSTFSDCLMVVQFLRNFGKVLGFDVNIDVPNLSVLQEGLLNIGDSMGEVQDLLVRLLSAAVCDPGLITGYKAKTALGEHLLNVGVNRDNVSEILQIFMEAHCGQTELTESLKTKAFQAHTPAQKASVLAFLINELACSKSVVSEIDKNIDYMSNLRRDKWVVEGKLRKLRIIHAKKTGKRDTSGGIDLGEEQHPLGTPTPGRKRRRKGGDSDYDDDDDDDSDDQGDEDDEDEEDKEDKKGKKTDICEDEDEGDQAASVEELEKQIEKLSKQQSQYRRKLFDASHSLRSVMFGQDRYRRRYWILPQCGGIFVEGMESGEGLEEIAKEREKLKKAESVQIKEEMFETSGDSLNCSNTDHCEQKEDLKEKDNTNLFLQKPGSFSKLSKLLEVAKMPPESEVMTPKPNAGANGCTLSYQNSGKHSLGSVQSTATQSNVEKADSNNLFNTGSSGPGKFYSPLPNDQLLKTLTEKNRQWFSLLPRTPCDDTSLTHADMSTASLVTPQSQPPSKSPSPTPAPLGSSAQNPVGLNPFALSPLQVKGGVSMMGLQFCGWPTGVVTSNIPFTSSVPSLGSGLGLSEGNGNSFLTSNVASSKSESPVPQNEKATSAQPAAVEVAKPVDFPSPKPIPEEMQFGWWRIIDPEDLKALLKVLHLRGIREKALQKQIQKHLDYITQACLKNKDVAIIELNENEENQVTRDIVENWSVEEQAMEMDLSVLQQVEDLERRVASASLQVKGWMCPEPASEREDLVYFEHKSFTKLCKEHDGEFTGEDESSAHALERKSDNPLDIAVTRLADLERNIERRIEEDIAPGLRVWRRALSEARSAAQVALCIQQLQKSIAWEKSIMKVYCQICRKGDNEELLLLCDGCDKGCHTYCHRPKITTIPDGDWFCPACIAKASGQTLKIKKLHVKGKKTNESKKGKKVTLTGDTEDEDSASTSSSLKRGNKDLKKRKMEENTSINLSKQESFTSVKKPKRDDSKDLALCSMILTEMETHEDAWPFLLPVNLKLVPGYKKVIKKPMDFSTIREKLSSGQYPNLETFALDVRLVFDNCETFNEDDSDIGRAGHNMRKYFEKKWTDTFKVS
T3 sequence (Q92830 whole entry): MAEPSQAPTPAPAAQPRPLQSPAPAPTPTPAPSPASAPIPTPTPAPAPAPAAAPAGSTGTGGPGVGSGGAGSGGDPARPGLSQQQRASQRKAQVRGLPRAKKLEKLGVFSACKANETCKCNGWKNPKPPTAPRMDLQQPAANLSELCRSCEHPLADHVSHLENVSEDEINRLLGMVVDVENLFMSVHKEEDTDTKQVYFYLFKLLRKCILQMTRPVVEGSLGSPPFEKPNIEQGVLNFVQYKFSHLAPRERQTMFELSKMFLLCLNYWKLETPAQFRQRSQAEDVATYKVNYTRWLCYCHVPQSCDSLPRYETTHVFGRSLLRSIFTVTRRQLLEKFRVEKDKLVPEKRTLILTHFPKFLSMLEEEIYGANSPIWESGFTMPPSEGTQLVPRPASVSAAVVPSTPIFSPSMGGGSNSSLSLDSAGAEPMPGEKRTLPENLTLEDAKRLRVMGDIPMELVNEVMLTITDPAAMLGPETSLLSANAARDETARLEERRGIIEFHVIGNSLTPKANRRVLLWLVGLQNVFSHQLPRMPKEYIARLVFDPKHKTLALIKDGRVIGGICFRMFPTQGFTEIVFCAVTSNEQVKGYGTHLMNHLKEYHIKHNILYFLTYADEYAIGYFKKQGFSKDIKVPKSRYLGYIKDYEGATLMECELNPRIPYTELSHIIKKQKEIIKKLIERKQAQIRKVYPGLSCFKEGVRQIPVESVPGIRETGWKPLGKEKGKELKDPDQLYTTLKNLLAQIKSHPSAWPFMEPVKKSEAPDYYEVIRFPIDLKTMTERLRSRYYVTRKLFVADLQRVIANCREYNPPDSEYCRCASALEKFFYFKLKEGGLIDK
T1 sequence (Q9BXF3 whole entry): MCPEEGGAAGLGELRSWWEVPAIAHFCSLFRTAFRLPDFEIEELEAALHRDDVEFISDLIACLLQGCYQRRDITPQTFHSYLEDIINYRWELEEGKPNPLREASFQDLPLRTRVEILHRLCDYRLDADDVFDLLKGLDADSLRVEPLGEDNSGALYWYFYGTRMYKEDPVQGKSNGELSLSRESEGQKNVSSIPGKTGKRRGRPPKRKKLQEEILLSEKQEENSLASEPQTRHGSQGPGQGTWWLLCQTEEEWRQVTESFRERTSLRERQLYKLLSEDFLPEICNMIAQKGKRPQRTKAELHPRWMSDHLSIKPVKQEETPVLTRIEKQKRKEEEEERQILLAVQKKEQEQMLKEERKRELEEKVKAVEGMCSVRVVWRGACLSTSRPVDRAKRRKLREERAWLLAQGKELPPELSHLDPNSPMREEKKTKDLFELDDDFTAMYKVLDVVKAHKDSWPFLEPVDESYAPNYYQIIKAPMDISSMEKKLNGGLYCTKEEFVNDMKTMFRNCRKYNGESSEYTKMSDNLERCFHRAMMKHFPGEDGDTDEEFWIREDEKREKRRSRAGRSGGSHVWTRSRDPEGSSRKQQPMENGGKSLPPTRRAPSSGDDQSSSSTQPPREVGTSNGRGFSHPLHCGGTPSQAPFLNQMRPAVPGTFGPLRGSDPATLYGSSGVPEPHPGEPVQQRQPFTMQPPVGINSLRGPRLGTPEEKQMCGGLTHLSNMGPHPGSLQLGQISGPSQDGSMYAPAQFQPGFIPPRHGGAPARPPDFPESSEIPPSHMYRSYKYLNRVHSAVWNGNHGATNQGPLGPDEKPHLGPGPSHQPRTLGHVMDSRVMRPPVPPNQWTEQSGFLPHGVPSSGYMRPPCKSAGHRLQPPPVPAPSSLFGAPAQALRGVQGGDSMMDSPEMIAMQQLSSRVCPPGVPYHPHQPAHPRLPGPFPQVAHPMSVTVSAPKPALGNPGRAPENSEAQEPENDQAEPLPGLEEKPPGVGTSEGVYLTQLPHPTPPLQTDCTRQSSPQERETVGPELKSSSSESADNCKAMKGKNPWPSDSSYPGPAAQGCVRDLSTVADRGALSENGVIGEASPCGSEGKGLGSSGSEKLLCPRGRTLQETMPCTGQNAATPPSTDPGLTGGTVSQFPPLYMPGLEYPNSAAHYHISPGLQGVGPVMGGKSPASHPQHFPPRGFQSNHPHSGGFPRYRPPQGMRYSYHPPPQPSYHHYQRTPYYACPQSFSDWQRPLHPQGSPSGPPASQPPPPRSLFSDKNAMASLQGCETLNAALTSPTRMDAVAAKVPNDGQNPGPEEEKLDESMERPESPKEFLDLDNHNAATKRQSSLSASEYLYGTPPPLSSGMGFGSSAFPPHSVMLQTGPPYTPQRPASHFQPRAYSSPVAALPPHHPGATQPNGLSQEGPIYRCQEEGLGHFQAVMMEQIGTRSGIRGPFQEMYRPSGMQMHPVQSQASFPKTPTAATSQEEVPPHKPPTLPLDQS

- remaining binding at 1 µM (CECR2): 78%
- remaining binding at 1 µM (BAZ2B): 82%
- remaining binding at 1 µM (GCN5L2): 100%
- remaining binding at 1 µM (BRD4(1)): 3.3%
- brain tissue concentration ([1]; 25 or 50 mg/kg i.p., 8, 16, 24 h): < 6 ng/mL
- brain concentration ([1]; i.p., 16 and 24 hrs): < 6 ng/mL
- remaining binding at 1 µM (SMARCA2): 50%
Structure (SMILES): CO[C@H]1CC[C@H](n2c([C@@H]3CCCC(=O)N3c3ccc(F)c(F)c3)nc3cc(-c4c(C)noc4C)ccc32)CC1 [CCS1477]
